Measurements published in ChEMBL document CHEMBL5303763, “Data for DCP probe BI-3802” (2023).
The source made the active and inactive calls. The calls are words filed in the database; no cut-off is given here.

Columns and labels:
[1] = biological target: Beta-2 adrenergic receptor (Homo sapiens) (UniProt P07550); test: BETA2/HUM Eurofins SafetyScreen44 (BI); details: filed as antagonist, Compound concentration 10.0 uM
[2] = biological target: Cannabinoid receptor 2 (Homo sapiens) (UniProt P34972); test: CB2/PERIPH/H Eurofins SafetyScreen44 (BI); details: Compound concentration 10.0 uM
[3] = biological target: Muscarinic acetylcholine receptor M1 (Homo sapiens) (UniProt P11229); test: M1/H Eurofins SafetyScreen44 (BI); details: Compound concentration 10.0 uM
[4] = biological target: Prostaglandin G/H synthase 2 (Homo sapiens) (UniProt P35354); test: COX-2 Eurofins SafetyScreen44 (BI); details: Compound concentration 10.0 uM
[5] = biological target: Histamine H2 receptor (Homo sapiens) (UniProt P25021); test: H2/APT/HS Eurofins SafetyScreen44 (BI); details: filed as antagonist, Compound concentration 10.0 uM
[6] = biological target: Neuronal acetylcholine receptor; alpha4/beta2 (Homo sapiens) (UniProt P17787+P43681); test: N_NEURO_A4B2 Eurofins SafetyScreen44 (BI); format: protein-complex assay; details: filed as agonist, Compound concentration 10.0 uM
[7] = biological target: voltage-gated Na+ channel (site 2) (Rattus norvegicus, UniProt F1LQQ7+O08562+O88420+O88457+P04774+P04775+P08104+P15389+P15390+Q62968); test: NA+/SITE2/R Eurofins SafetyScreen44 (BI); format: protein assay; details: rat brain, probe [3H]batrachotoxinin, compound concentration 10 uM, read-out: % Ctrl
[8] = biological target: B-cell lymphoma 6 protein (Homo sapiens, UniProt P41182); test: BCL6:BCOR ULight TR-FRET
[9] = biological target: Vasopressin V1a receptor (Homo sapiens) (UniProt P37288); test: V1A/HUM Eurofins SafetyScreen44 (BI); details: Compound concentration 10.0 uM
[10] = biological target: Adenosine receptor A2a (Homo sapiens) (UniProt P29274); test: A2A/H Eurofins SafetyScreen44 (BI); details: filed as antagonist, Compound concentration 10.0 uM
[11] = biological target: Sodium-dependent noradrenaline transporter (Homo sapiens) (UniProt P23975); test: NEUP/H Eurofins SafetyScreen44 (BI); details: Compound concentration 10.0 uM
[12] = biological target: Sodium-dependent dopamine transporter (Homo sapiens) (UniProt Q01959); test: DATRANS/HUM Eurofins SafetyScreen44 (BI); details: Compound concentration 10.0 uM
[13] = biological target: cGMP-inhibited 3',5'-cyclic phosphodiesterase 3A (Homo sapiens) (UniProt Q14432); test: PDE3A Eurofins SafetyScreen44 (BI); details: Compound concentration 10.0 uM
[14] = biological target: D(2) dopamine receptor (Homo sapiens) (UniProt P14416); test: D2SH_AGON Eurofins SafetyScreen44 (BI); details: filed as agonist, Compound concentration 10.0 uM
[15] = biological target: 3',5'-cyclic-AMP phosphodiesterase 4D (Homo sapiens) (UniProt Q08499); test: PDE4D2 Eurofins SafetyScreen44 (BI); details: Compound concentration 10.0 uM
[16] = biological target: T1, Alpha-2A adrenergic receptor (Homo sapiens) (UniProt P08913); test: ALPHA2A/HU Eurofins SafetyScreen44 (BI); details: Compound concentration 10.0 uM
T1 sequence (whole entry): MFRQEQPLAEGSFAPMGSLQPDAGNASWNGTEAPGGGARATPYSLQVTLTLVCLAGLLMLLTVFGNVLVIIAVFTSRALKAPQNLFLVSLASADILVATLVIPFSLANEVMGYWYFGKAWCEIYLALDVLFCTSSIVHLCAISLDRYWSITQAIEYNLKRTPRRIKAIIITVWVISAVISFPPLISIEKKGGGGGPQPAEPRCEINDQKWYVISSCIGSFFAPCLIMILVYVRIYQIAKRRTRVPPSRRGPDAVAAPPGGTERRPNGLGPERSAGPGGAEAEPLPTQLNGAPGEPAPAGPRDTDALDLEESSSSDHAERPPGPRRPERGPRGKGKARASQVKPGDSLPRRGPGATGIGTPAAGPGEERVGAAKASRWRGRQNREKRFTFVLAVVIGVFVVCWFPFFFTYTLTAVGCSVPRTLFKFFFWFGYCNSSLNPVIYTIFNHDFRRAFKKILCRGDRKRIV

[17] = biological target: Endothelin-1 receptor (Homo sapiens) (UniProt P25101); test: ETA/H Eurofins SafetyScreen44 (BI); details: Compound concentration 10.0 uM
[18] = biological target: Muscarinic acetylcholine receptor M3 (Homo sapiens) (UniProt P20309); test: M3/H Eurofins SafetyScreen44 (BI); details: Compound concentration 10.0 uM
[19] = biological target: Histamine H1 receptor (Homo sapiens) (UniProt P35367); test: H1/PYRIL/HS Eurofins SafetyScreen44 (BI); details: Compound concentration 10.0 uM
[20] = biological target: Prostaglandin G/H synthase 1 (Homo sapiens) (UniProt P23219); test: COX-1 Eurofins SafetyScreen44 (BI); details: Compound concentration 10.0 uM
[21] = biological target: D(1A) dopamine receptor (Homo sapiens) (UniProt P21728); test: D1/H Eurofins SafetyScreen44 (BI); details: filed as antagonist, Compound concentration 10.0 uM
[22] = biological target: Glucocorticoid receptor (Homo sapiens) (UniProt P04150); test: GCORTICOID/H Eurofins SafetyScreen44 (BI); details: Compound concentration 10.0 uM
[23] = biological target: 5-hydroxytryptamine receptor 2A (Homo sapiens) (UniProt P28223); test: 5HT2AH_AGON Eurofins SafetyScreen44 (BI); details: filed as agonist, Compound concentration 10.0 uM
[24] = biological target: T2, Muscarinic acetylcholine receptor M2 (Homo sapiens) (UniProt P08172); test: M2/H Eurofins SafetyScreen44 (BI); details: filed as antagonist, Compound concentration 10.0 uM
T2 sequence (whole entry): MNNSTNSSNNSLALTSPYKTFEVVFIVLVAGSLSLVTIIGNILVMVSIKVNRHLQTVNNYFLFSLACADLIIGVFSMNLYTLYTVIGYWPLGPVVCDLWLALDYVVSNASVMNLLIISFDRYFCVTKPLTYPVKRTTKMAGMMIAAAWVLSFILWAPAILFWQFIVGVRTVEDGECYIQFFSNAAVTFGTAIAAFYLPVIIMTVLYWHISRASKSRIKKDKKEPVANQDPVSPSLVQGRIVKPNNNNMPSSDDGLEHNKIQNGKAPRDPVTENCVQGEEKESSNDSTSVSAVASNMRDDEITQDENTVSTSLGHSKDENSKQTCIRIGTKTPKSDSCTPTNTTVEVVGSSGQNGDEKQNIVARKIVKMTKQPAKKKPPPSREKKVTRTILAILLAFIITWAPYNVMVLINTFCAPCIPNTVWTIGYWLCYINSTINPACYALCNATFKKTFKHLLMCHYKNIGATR

[25] = biological target: Tyrosine-protein kinase Lck (Homo sapiens) (UniProt P06239); test: LCK_CE Eurofins SafetyScreen44 (BI); details: Compound concentration 10.0 uM
[26] = biological target: 5-hydroxytryptamine receptor 2B (Homo sapiens) (UniProt P41595); test: 5HT2B/H AG Eurofins SafetyScreen44 (BI); details: filed as agonist, Compound concentration 10.0 uM
[27] = biological target: Delta-type opioid receptor (Homo sapiens) (UniProt P41143); test: DELTA2/H Eurofins SafetyScreen44 (BI); details: Compound concentration 10.0 uM
[28] = biological target: Sodium-dependent serotonin transporter (Homo sapiens) (UniProt P31645); test: SLC6A4/H Eurofins SafetyScreen44 (BI); details: filed as antagonist, Compound concentration 10.0 uM
[29] = biological target: Alpha-1A adrenergic receptor (Homo sapiens) (UniProt P35348); test: ALPHA1AH_ANTAG Eurofins SafetyScreen44 (BI); details: filed as antagonist, Compound concentration 10.0 uM

Chain of Delta-type opioid receptor (Homo sapiens) (P41143 whole entry): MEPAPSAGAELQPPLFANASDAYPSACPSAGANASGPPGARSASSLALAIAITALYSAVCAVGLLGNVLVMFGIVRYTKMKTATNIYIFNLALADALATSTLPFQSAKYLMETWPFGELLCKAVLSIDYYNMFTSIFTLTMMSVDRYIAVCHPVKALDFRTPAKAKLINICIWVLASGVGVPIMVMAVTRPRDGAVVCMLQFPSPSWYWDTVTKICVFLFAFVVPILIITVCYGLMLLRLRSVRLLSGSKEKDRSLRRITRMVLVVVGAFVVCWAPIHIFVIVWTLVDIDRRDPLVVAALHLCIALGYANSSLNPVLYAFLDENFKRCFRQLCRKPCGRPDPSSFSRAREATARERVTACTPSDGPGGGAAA
Chain of Cannabinoid receptor 2 (Homo sapiens) (P34972 whole entry): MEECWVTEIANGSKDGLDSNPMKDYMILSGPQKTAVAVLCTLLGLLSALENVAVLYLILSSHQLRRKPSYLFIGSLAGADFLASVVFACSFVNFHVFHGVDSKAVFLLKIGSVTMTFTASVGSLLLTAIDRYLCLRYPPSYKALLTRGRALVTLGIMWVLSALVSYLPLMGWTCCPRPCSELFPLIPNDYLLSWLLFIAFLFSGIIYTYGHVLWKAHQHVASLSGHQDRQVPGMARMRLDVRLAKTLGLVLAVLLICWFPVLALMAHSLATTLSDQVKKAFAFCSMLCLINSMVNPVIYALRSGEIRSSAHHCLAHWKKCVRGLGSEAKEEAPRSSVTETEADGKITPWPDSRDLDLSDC
Chain of Glucocorticoid receptor (Homo sapiens) (P04150 whole entry): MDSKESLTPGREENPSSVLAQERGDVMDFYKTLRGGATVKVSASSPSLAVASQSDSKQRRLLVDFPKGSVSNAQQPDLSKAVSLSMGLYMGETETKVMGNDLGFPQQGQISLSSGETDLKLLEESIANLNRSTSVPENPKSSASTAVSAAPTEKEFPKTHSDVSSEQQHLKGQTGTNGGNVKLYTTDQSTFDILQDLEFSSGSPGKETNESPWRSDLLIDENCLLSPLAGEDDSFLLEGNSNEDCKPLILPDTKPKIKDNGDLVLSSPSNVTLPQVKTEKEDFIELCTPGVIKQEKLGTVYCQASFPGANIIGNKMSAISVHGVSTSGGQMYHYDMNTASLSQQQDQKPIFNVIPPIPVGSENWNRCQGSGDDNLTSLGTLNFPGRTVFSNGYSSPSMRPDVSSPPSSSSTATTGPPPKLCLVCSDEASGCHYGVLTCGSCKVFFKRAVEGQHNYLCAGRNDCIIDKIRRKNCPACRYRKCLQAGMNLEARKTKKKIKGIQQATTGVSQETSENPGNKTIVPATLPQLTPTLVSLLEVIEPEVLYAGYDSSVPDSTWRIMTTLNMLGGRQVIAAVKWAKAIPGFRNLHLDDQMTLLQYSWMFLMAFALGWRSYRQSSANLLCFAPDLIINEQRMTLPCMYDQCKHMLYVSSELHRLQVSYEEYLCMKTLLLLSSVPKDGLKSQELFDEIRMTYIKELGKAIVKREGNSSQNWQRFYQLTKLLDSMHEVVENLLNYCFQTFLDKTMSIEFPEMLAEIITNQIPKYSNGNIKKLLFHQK
Chain of 5-hydroxytryptamine receptor 2B (Homo sapiens) (P41595 whole entry): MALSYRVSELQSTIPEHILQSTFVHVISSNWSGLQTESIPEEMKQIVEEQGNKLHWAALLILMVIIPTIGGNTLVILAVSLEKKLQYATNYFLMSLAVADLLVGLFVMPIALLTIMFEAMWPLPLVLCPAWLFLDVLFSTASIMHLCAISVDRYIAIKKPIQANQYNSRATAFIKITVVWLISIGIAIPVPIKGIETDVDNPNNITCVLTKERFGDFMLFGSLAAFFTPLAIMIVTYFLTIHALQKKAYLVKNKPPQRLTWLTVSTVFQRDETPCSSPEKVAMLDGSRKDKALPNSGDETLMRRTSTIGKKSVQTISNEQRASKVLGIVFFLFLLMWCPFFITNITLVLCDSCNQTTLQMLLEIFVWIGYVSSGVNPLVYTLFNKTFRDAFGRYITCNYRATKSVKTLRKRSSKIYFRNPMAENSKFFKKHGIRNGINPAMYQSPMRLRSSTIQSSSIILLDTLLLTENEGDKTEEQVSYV
Chain of Sodium-dependent noradrenaline transporter (Homo sapiens) (P23975 whole entry): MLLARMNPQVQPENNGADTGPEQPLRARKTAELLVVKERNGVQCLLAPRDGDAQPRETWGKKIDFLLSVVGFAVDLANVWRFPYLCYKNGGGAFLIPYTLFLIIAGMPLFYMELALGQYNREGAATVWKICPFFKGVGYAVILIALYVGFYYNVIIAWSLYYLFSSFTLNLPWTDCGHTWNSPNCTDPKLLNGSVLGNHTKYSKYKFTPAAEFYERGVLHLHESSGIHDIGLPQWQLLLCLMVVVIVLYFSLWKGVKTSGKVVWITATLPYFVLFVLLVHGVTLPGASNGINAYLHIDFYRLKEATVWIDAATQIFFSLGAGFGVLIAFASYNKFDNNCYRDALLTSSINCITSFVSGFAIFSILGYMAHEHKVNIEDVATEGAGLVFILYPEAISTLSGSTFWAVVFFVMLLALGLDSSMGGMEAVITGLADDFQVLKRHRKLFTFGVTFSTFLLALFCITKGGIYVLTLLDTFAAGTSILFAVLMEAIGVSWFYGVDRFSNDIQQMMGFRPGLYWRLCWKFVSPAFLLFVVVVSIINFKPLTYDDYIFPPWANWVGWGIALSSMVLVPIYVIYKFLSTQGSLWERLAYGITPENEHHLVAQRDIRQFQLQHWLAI
Chain of Endothelin-1 receptor (Homo sapiens) (P25101 whole entry): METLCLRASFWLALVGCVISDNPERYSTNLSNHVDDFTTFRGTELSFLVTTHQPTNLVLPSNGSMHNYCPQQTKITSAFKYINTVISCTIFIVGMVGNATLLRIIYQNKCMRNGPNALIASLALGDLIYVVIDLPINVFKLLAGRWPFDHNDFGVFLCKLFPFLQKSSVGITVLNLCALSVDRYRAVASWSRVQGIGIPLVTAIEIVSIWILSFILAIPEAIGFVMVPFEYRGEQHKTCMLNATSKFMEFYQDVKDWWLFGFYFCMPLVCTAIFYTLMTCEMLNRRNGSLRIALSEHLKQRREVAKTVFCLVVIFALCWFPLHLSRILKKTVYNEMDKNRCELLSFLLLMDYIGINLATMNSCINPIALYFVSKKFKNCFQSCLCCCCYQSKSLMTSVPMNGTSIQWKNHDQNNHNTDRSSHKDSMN
Chain of Sodium-dependent serotonin transporter (Homo sapiens) (P31645 whole entry, looked up): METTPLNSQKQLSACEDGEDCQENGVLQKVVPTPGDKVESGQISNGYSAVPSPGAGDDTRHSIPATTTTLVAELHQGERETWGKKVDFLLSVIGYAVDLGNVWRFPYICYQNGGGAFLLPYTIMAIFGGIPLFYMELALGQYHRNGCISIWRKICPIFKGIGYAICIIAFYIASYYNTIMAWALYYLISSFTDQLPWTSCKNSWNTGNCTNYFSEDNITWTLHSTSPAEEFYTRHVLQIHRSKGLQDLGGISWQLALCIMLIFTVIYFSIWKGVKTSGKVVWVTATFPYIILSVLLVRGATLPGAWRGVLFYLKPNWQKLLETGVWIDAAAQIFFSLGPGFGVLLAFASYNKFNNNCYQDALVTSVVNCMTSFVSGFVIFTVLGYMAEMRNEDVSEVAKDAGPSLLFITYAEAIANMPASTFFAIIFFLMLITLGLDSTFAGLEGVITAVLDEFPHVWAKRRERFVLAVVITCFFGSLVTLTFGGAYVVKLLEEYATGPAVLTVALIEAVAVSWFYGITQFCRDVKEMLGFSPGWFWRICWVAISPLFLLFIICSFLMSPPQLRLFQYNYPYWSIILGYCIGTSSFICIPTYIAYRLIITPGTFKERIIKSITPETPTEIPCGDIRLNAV
Chain of Muscarinic acetylcholine receptor M3 (Homo sapiens) (P20309 whole entry, looked up): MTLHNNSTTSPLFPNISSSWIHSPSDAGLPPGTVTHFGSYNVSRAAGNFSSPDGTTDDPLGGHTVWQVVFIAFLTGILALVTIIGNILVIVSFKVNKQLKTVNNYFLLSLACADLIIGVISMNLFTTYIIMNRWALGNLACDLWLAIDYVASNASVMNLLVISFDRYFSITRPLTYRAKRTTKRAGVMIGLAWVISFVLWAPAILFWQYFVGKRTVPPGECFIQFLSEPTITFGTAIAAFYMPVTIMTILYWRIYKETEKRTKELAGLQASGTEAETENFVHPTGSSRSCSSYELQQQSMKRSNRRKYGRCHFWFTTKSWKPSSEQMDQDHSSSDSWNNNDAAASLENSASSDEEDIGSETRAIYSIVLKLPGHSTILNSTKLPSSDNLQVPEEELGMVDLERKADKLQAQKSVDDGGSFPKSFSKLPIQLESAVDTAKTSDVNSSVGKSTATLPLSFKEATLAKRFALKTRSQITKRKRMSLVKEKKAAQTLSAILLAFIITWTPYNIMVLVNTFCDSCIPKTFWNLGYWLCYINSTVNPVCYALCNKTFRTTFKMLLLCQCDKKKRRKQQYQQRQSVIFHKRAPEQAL
Chain of Prostaglandin G/H synthase 2 (Homo sapiens) (P35354 whole entry): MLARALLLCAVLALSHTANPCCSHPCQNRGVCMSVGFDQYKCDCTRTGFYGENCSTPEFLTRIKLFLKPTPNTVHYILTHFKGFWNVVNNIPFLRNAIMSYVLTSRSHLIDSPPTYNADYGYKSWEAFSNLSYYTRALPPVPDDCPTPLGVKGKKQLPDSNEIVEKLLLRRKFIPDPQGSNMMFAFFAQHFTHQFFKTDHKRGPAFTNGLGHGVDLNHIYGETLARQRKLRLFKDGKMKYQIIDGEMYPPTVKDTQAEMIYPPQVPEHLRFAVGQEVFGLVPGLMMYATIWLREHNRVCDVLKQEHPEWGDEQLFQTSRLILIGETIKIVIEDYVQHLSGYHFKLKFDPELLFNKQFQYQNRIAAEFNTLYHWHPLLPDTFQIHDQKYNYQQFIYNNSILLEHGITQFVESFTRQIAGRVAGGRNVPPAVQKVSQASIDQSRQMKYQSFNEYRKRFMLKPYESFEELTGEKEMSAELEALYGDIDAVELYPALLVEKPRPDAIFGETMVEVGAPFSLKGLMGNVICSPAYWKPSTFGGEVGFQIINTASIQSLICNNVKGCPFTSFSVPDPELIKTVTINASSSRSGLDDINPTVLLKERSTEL

SMILES | residual activity [1] [%] | residual activity [2] [%] | residual activity [3] [%] | residual activity [4] [%] | residual activity [5] [%] | residual activity [6] [%] | activity at 10 µM [7] | IC50 [8] | residual activity [9] [%] | residual activity [10] [%] | residual activity [11] [%] | residual activity [12] [%] | residual activity [13] [%] | residual activity [14] [%] | residual activity [15] [%] | residual activity [16] [%] | residual activity [17] [%] | residual activity [18] [%] | residual activity [19] [%] | residual activity [20] [%] | further results
CNC(=O)COc1cc2cc(Nc3nc(N4C[C@H](C)C[C@H](C)C4)ncc3Cl)ccc2n(C)c1=O | 101 | 96 | 93 | 88 | 110 | 107 | 114% (not active) | ≤ 0.003 µM (active) | 85 | 92 | 99 | 88 | 95 | 115 | 100 | 111 | 100 | 110 | 105 | 90 | residual activity [21]: 106%; residual activity [22]: 99%; residual activity [23]: 112%; residual activity [24]: 102%; residual activity [25]: 114%; residual activity [26]: 12%; residual activity [27]: 100%; residual activity [28]: 104%; residual activity [29]: 110%
C[C@@H]1C[C@H](C)CN(c2ncc(Cl)c(Nc3ccc4c(c3)cc(OC(C)(C)C(=O)O)c(=O)n4C)n2)C1 | 89 | 103 | 128 | 75 | 121 | 106 | 88% (not active) | 10.2 µM (not active) | 97 | 107 | 102 | 100 | 99 | 86 | 87 | 104 | 111 | 111 | 86 | 82 | residual activity [21]: 92%; residual activity [22]: 97%; residual activity [23]: 125%; residual activity [24]: 111%; residual activity [25]: 87%; residual activity [26]: 159%; residual activity [27]: 97%; residual activity [28]: 91%; residual activity [29]: 99%
